US20050148523A1, “Method of treating HIV infection in atazanavir-resistant patients using a combination of atazanavir and another protease inhibitor” (priority 2003, published 2005)
Read-outs that look alike come from different tables or passages of the source.

Tests used:
[1] = tested on: NL4-3 reference strain; test: PhenoSense phenotypic drug susceptibility assay, reference strain; type: cell-based, HIV-1; settings: Human immunodeficiency virus 1, NL43; over the several months of sample testing; read-out: IC50 measured for the NL4-3 reference strain
Experimental: Drug Susceptibility Assays. Clinical isolates were subjected to phenotypic (PhenoSense™) and genotypic (GeneSeq™) analysis by Virologic, Inc. as described elsewhere. Over the time period (several months) in which the samples reported here were tested, the ATV IC50 measured for the NL4-3 reference strain ranged from 0.9-2.0 nM. The success rate in obtaining phenotype and genotype results from patients experiencing virologic failure ranged from 30 to 50%, largely because of low HIV RNA levels (the assays used required levels of >=500 c/mL), insufficient sample volume, or no sample was available.

[2] = tested on: clinical isolates containing an I50L substitution (and their baseline isolates); test: PhenoSense phenotypic susceptibility of clinical isolates from ATV-treated patients who developed I50L; type: cell-based, HIV-1
Description: (§1) Study Population. Viral samples (baseline and on-treatment, where available) were obtained from patients who experienced virologic failure while enrolled in studies AI424-007/041 [12] (ATV+d4T and ddI), AI424-008/044 [13, 14] (ATV+d4T and 3TC) and AI424-034 [9] (ATV or EFV in combination with ZDV and 3TC). […] In general, virologic failure specimens were selected for further resistance evaluation only if they contained >1,000 copies/mL HIV-1 RNA and there was no indication that the specimen came from a patient at a time of transient non-adherence to study drug(s). […] For non-responders, samples from week 16 (or 24) were tested. Drug adherence was determined from pill counts of returned study medications at each scheduled visit.
Drug Susceptibility Assays. Clinical isolates were subjected to phenotypic (PhenoSense™) and genotypic (GeneSeq™) analysis by Virologic, Inc. as described elsewhere.

[3] = tested on: recombinant HIV-1 viruses (NL4-3, RF, LAI) in MT-2 cells; test: MT-2 cell susceptibility assay of recombinant viruses; type: cell-based
Experimental: Cells and Viruses. MT-2 cells, HIV-1 RF, HIV1-LAI, and the HIV-1 NL4-3 proviral clones were obtained through the AIDS Research and Reference Reagent Program, National Institutes of Health. MT-2 cells were cultured in RPMI 1640 medium supplemented with 10% fetal bovine serum, 2 mM L-glutamine, and 10 mM Hepes buffer. HIV-1 viruses were generated by transient transfection of the proviral DNA into Human Embryonic Kidney 293 cells using Lipofectamine reagents (Gibco BRL). The viruses were harvested 72 hr post-transfection, amplified in MT-2 cells, and titered in the same cells using a virus yield assay.
Recombinant HIV-1 Variants and Chimeric NL4-3 Proviral Clones. HIV-1 strains with defined substitutions in the protease gene were generated by QuikChange® site-directed mutagenesis as recommended by the manufacturer (Stratagene). Recombinant NL4-3 and LAI proviral clones containing the wild-type and mutant protease genes from RF and clinical isolates were constructed by replacing the SseI/ApaI fragment of pNL4-3 with the appropriate SseI/ApaI protease fragments.
Recombinant viruses (generated separately from those made for PhenoSense assays) were tested in an MT-2 cell susceptibility assay at Bristol Myers Squibb. MT-2 cells were infected with recombinant viruses at a multiplicity of infection (MOI) of 0.005 50% tissue culture infective doses (TCID50)/cell followed by incubation in the presence or absence of serially diluted protease inhibitors for 4 to 7 days. Virus yields were quantified using a RT assay as previously described. The results from at least four independent experiments were used to calculate the EC50.

[4] = tested on: HIV-1 in treatment naive patients on ATV containing regimens; test: Pooled resistance analysis of studies AI424-007/041, 008/044 and 034; type: in vivo, human; settings: patients with I50L, N=10
Description: as §1
ATV resistance was defined as ≧2-fold decrease in ATV susceptibility from baseline, a Fold Change (FC) of ≧2.5 (relative to the Nl4-3 reference strain), or evidence of an isoleucine (Ile) to leucine (Leu) change at amino acid residue 50 (I50L). Resistance levels for NFV and EFV were also defined as a FC reaching 2.5.

[5] = target: HIV-1 protease (Human immunodeficiency virus type 1 group M subtype B, UniProt P04585); settings: cited from earlier work

With COC(=O)N[C@H](C(=O)N[C@@H](Cc1ccccc1)[C@@H](O)CN(Cc1ccc(-c2ccccn2)cc1)NC(=O)[C@@H](NC(=O)OC)C(C)(C)C)C(C)(C)C [ATV, atazanavir] the IC50 [1] was 0.9 to 2 nM, the “median FC” value ([2]; I50L isolates, relative to NL4-3 reference strain) was 9.6 fold and the “Susceptibility, Fold Change in EC50 relative to reference strain” value ([2]; Isolate with I50L 1) was 3.5 Fold Change. For the same compound, the “Susceptibility, Fold Change in EC50 relative to reference strain” value ([2]; Isolate with I50L 2) was 4.9 Fold Change, the “Susceptibility, Fold Change in EC50 relative to reference strain” value ([2]; Isolate with I50L 3) was 5.2 Fold Change and the “Susceptibility, Fold Change in EC50 relative to reference strain” value ([2]; Isolate with I50L 4) was 5.8 Fold Change. The “Susceptibility, Fold Change in EC50 relative to reference strain” value ([2]; Isolate with I50L 5) was 6.7 Fold Change, the “Susceptibility, Fold Change in EC50 relative to reference strain” value ([2]; Isolate with I50L 6) was 7.9 Fold Change and the “Susceptibility, Fold Change in EC50 relative to reference strain” value ([2]; Isolate with I50L 7) was 8.6 Fold Change. For the same compound, the “Susceptibility, Fold Change in EC50 relative to reference strain” value ([2]; Isolate with I50L 8) was 8.8 Fold Change, the “Susceptibility, Fold Change in EC50 relative to reference strain” value ([2]; Isolate with I50L 9) was 9.5 Fold Change and the “Susceptibility, Fold Change in EC50 relative to reference strain” value ([2]; Isolate with I50L 10) was 10 Fold Change. The “Susceptibility, Fold Change in EC50 relative to reference strain” value ([2]; Isolate with I50L 11) was 11 Fold Change, the “Susceptibility, Fold Change in EC50 relative to reference strain” value ([2]; Isolate with I50L 12) was 12 Fold Change and the “Susceptibility, Fold Change in EC50 relative to reference strain” value ([2]; Isolate with I50L 13) was 13 Fold Change. The “Susceptibility, Fold Change in EC50 relative to reference strain” value ([2]; Isolate with I50L 14) was 19 Fold Change, the “Susceptibility, Fold Change in EC50 relative to reference strain” value ([2]; Isolate with I50L 15) was 22 Fold Change and the “Susceptibility, Fold Change in EC50 relative to reference strain” value ([2]; Isolate with I50L 16) was 29 Fold Change. For the same compound, the “Susceptibility, Fold Change in EC50 relative to reference strain” value ([2]; Subject 076, Week 80) was 9.5 Fold Change, the “Susceptibility, Fold Change in EC50 relative to reference strain” value ([2]; Subject 076, Week 92) was 16 Fold Change and the “Susceptibility, Fold Change in EC50 relative to reference strain” value ([2]; Subject 100, Week 1.7) was 1.5 Fold Change. The “Susceptibility, Fold Change in EC50 relative to reference strain” value ([2]; Subject 169, Week 0.1) was 1.1 Fold Change, the “Susceptibility, Fold Change in EC50 relative to reference strain” value ([2]; Subject 169, Week 90) was 12 Fold Change and the “Susceptibility, Fold Change in EC50 relative to reference strain” value ([2]; Subject 169, Week 102) was 9.2 Fold Change. For the same compound, the “Subceptibility, Fold Change in EC50 relative to reference strain” value ([2]; Subject 169, Week 114) was 13 Fold Change, the “Susceptibility, Fold Change in EC50 relative to reference strain” value ([2]; Subject 362, Week 0.1) was 1.3 Fold Change and the “Susceptibility, Fold Change in EC50 relative to reference strain” value ([2]; Subject 362, Week 108) was 12 Fold Change. The “median decrease in susceptibility from baseline” value ([2]; on emergence of I50L, n=15) was 9.6 fold, the FC ([2]; same isolate prior to developing the I50L change) was 0.2 and the FC ([2]; the one I50L isolate with lowest FC, on treatment) was 1.5. The FC ([2]; three on treatment isolates containing I50I/L mixtures) was “below 1”, the “median FC” value ([2]; viruses containing the I50L substitution, FIG. 3) was “selective resistance” and the EC50 ([3]; Human immunodeficiency virus 1, NL43, MT2, LAI A71V, read-out: ATV phenotype (value before parenthesis, EC50)) was 3.7 ± 0.9 nM. For the same compound, the EC50 ([3]; Human immunodeficiency virus 1, NL43, MT2, LAI Control, read-out: ATV phenotype (value before parenthesis, EC50)) was 1.5 ± 0.3 nM, the EC50 ([3]; Human immunodeficiency virus 1, NL43, MT2, LAI I50L, read-out: ATV phenotype (value before parenthesis, EC50)) was 8.2 ± 3.4 nM and the EC50 ([3]; Human immunodeficiency virus 1, NL43, MT2, NL4-3 020: I50L + M46I, L63P, H69Q, V77I, I93L, read-out: ATV phenotype (value before parenthesis, EC50)) was 1.9 ± 0.5 nM. The EC50 ([3]; Human immunodeficiency virus 1, NL43, MT2, NL4-3 100A: I50L + L63P, K70R, A71V, N88S, read-out: ATV phenotype (value before parenthesis, EC50)) was 22.9 ± 6.4 nM, the EC50 ([3]; Human immunodeficiency virus 1, NL43, MT2, NL4-3 100B: I50L + L63P, K70R, A71V, G73S, read-out: ATV phenotype (value before parenthesis, EC50)) was 27.8 ± 2.8 nM and the EC50 ([3]; Human immunodeficiency virus 1, NL43, MT2, NL4-3 296: I50L + K45R, L63P, A71V, G73S, V77I, I93L, read-out: ATV phenotype (value before parenthesis, EC50)) was 7.1 ± 1.6 nM. The EC50 ([3]; Human immunodeficiency virus 1, NL43, MT2, NL4-3 347: I50L + I13V, E35D, M36I, M46L, L63P, A71V, V82A, read-out: ATV phenotype (value before parenthesis, EC50)) was 12.1 ± 1.4 nM, the EC50 ([3]; Human immunodeficiency virus 1, NL43, MT2, NL4-3 372: I50L + L10I, L63P, G73S, I93L, read-out: ATV phenotype (value before parenthesis, EC50)) was 9.8 ± 0.7 nM and the EC50 ([3]; Human immunodeficiency virus 1, NL43, MT2, NL4-3 398: I50L + E35D, M36L, N37S, R41K, R57K, I62V, L63P, I93L, read-out: ATV phenotype (value before parenthesis, EC50)) was 9 ± 1.5 nM. It also gave an EC50 ([3]; Human immunodeficiency virus 1, NL43, MT2, NL4-3 450: I50L + L19I, R41K, A71V, T74S, read-out: ATV phenotype (value before parenthesis, EC50)) of 4.4 ± 2.9 nM, an EC50 ([3]; Human immunodeficiency virus 1, NL43, MT2, NL4-3 A71V, read-out: ATV phenotype (value before parenthesis, EC50)) of 2.4 ± 0.04 nM and an EC50 ([3]; Human immunodeficiency virus 1, NL43, MT2, NL4-3 Control (first group), read-out: ATV phenotype (value before parenthesis, EC50)) of 0.8 ± 0.3 nM. For the same compound, the EC50 ([3]; Human immunodeficiency virus 1, NL43, MT2, NL4-3 I50L + A71V, read-out: ATV phenotype (value before parenthesis, EC50)) was 8.6 ± 1.9 nM, the EC50 ([3]; Human immunodeficiency virus 1, NL43, MT2, NL4-3 I50L, read-out: ATV phenotype (value before parenthesis, EC50)) was 3.1 ± 1.6 nM and the EC50 ([3]; Human immunodeficiency virus 1, NL43, MT2, RF A71V, read-out: ATV phenotype (value before parenthesis, EC50)) was 0.6 ± 0.2 nM. The EC50 ([3]; Human immunodeficiency virus 1, NL43, MT2, RF Control, read-out: ATV phenotype (value before parenthesis, EC50)) was 0.7 ± 0.1 nM, the EC50 ([3]; Human immunodeficiency virus 1, NL43, MT2, RF I50L + A71V, read-out: ATV phenotype (value before parenthesis, EC50)) was 4 ± 0.3 nM and the EC50 ([3]; Human immunodeficiency virus 1, NL43, MT2, RF I50L, read-out: ATV phenotype (value before parenthesis, EC50)) was 2.2 ± 1.8 nM. For the same compound, the EC50 ([3]; Human immunodeficiency virus 1, NL43, MT2, read-out: ATV phenotype (value before parenthesis, EC50), LAI 150L + A71V) was 15.1 ± 4.7 nM, the EC50 ([3]; Human immunodeficiency virus 1, NL43, MT2, read-out: ATV phenotype (value before parenthesis, EC50), NL4-3 Control (second group, site-directed mutants)) was 1.5 ± 0.1 nM and the “ATV (Fold Change)” value ([3]; LAI 150L + A71V) was 10 Fold Change. For the same compound, the “ATV (Fold Change)” value ([3]; LAI A71V) was 2.4 Fold Change, the “ATV (Fold Change)” value ([3]; LAI I50L) was 5.4 Fold Change and the “ATV (Fold Change)” value ([3]; NL4-3 020: I50L + M46I, L63P, H69Q, V77I, I93L) was 2.5 Fold Change. The “ATV (Fold Change)” value ([3]; NL4-3 100A: I50L + L63P, K70R, A71V, N88S) was 31 Fold Change, the “ATV (Fold Change)” value ([3]; NL4-3 100B: I50L + L63P, K70R, A71V, G73S) was 37 Fold Change and the “ATV (Fold Change)” value ([3]; NL4-3 296: I50L + K45R, L63P, A71V, G73S, V77I, I93L) was 9.5 Fold Change. The “ATV (Fold Change)” value ([3]; NL4-3 347: I50L + I13V, E35D, M36I, M46L, L63P, A71V, V82A) was 16 Fold Change, the “ATV (Fold Change)” value ([3]; NL4-3 372: I50L + L10I, L63P, G73S, I93L) was 13 Fold Change and the “ATV (Fold Change)” value ([3]; NL4-3 398: I50L + E35D, M36L, N37S, R41K, R57K, I62V, L63P, I93L) was 12 Fold Change. The “ATV (Fold Change)” value ([3]; NL4-3 450: I50L + L19I, R41K, A71V, T74S) was 5.9 Fold Change, the “ATV (Fold Change)” value ([3]; NL4-3 A71V) was 1.6 Fold Change and the “ATV (Fold Change)” value ([3]; NL4-3 I50L) was 2.1 Fold Change. The “ATV (Fold Change)” value ([3]; NL4-3 I50L + A71V) was 5.9 Fold Change, the “ATV (Fold Change)” value ([3]; RF A71V) was 0.9 Fold Change and the “ATV (Fold Change)” value ([3]; RF I50L) was 3 Fold Change. The “ATV (Fold Change)” value ([3]; RF I50L + A71V) was 5.7 Fold Change, the decrease in susceptibility ([3]; {}) was 2.1-5.4 fold and the “mean time to virologic failure” value [4] was 50 weeks. For the same compound, the Ki [5] was less than 1 nM.
